The values below come from patent US11981618B2, “P62 ligand compound, and composition for preventing, ameliorating or treating proteinopathies comprising the same” (AUTOTAC INC., priority 2018, dated 2024).

“Also recorded” adds a separate entry of the source.

One assay deals with LC3. Briefly: Autophagy activity in cultured cells by immunoblotting using LC3 as a marker. It is filed as cell-based, human. To be noted: HeLa; for autophagy activity (level of LC3), control compounds: different concentrations and different times, FIG. 5. The method, then: In order to evaluate the autophagy activity efficacy by the compounds (Examples 1-19), HeLa cell line, which is a cell line derived from a cervical cancer patient, was cultured using a DMEM medium containing 10% FBS and 1% streptomycin/penicillin in an incubator with 5% carbon dioxide. As representative compounds among the present compounds, YOK-1107, YOK-4404 and YOK-1104 were selected. In order to measure autophagy activity according to the treatment with these selected representative compounds, the respective cells were dispensed into 6 well plates. Additional cultures were performed […] so that the cells were completely attached to the surface of the plate. To find the concentration at which the respective compounds could increase the phenomenon of autophagy, the test compounds were diluted at 1, 2, 5, 10 and 20 μM and treated. After treatment with the respective compounds, the cells were cultured again in a cell incubator for 24 hours, and then the cells were collected. To extract proteins from the collected cells, 100 ul of lysis buffer (20 mM Tris (pH 7.4), 150 mM NaCl, 1% Triton X-100, 2 mM NaF, 2 mM EDTA, 2 mM beta-glycerophosphate, 5 mM sodium orthovanadate, 1 mM PMSF, leupeptin, aprotinin) was injected into each sample, and cells were lysed. Based on the measured total protein concentration, a sample buffer was added to each sample and allowed to react at 100° C. for 5 minutes. 5 ul was taken from the samples after the reaction, and dispensed into each well of acrylamide gel, and then immunoblotting was performed.
In order to investigate the autophagy activity efficacy by the compounds (Examples 1-19), immunoblotting was performed in the same manner as in Experimental Example 2 using LC3 as a marker. As for the difference, in order to evaluate the treatment time required for activation and the activity retention time, as the representative compounds selected among the present compounds, 5 μM of YOK-1107, YOK-1204, YOK-1304, YOK-2204, YOK-3304, […] treated for 1, 3, 6, 12, 24, 48 hours. On the other hand, as the representative compounds selected among the compounds of the present invention, […] YOK-1107, YOK-1109, YOK-2207, YOK-2209, YT-4-1, YT-4-2, YT-6-1, YT-6-2, YT-6-8, YT-6-7, YT-9-1, YT-9-2 were treated for 24 hours.
In order to investigate the autophagy activity efficacy of control compounds, immunoblotting was performed in the same manner as in Experimental Example 2 by using LC3 as a marker. As the control compounds, compounds having the following structure were used.
(In general: In western blotting, separated proteins are transferred to a membrane and probed.)

In the next assay the target is T1, p62 protein (Homo sapiens, UniProt Q13501).
T1 construct: endogenous in cells; host or cells: HEK293 (cell lysate treated with compounds)
T1 sequence (Q13501 whole entry): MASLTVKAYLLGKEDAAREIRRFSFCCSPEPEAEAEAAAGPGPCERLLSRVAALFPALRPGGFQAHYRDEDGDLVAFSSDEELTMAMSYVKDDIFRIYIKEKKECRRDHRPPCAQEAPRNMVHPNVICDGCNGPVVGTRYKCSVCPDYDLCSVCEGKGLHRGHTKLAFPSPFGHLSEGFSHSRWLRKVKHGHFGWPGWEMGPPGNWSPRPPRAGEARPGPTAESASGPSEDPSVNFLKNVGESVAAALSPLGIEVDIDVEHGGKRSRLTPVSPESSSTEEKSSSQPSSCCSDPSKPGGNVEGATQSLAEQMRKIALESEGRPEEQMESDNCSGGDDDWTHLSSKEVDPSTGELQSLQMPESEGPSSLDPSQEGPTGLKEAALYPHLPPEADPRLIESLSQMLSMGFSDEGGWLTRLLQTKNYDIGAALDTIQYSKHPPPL
Briefly: Oligomerization activity of p62 protein in cultured cells by immunoblotting. It counts as cell-based. To be noted: HEK293 cell lysate treated with test compounds at room temperature for 2 hours; immunoblot, FIG. 2. The source says:
In order to evaluate the p62 protein oligomerization activity efficacy by the compounds (Examples 1-19), HEK293 cell line, which is human embryonic kidney-derived cell, was collected. As representative compounds among the present compounds, YOK-1104, YOK-2204, YOK-3304, YOK-1204, YOK-4404, YOK-1107, YOK-1109, YOK-2207, YOK-2209, YT-4-1, YT-4-2, YT-6-1, YT-6-2, YT-6-7, YT-6-8, YT-9-1, YT-9-2 were selected. In order to measure intracellular p62 protein activation and oligomerization according to the treatment with these selected representative compounds, the respective cells were dispensed into a pi dish. The cells were collected after further culturing for 24 hours so that the cells were completely attached to the surface of the plate. 100 ul of lysis buffer (20 mM Tris, pH 7.4), 150 mM NaCl, 1% Triton X-100, 2 mM NaF, 2 mM EDTA, 2 mM beta-glycerophosphate, 5 mM sodium orthovanadate, 1 mM PMSF, leupeptin, aprotinin) were injected into each sample and the cells were lysed. Based on the measured total protein concentration, each sample was treated with test compounds at room temperature for 2 hours, and then a sample buffer was added and allowed to react at 95° C. for 10 minutes. 25 ul was taken from the samples after the reaction, and dispensed into each well of acrylamide gel, and then immunoblotting was performed.

The mark [1] stands for this setting: 1, 2, 5, 10 and 20 μM, 24 hours, FIG. 3.
Where [2] appears, read: 5 μM, treated for 1, 3, 6, 12, 24, 48 hours, FIG. 4.
Where [3] appears, read: treated for 24 hours (concentration not given), FIG. 4.

On to `O=Cc1ccc(OCc2ccccc2)c(OCc2ccccc2)c1` [Example 1101, 3,4-bis(benzyloxy)benzaldehyde, reference compound], for which the “autophagy activity (level of LC3), control compounds” value with LC3 is “do not increase autophagy activity”.

In the case of `Oc1ccc(OCc2ccccc2)c(OCc2ccccc2)c1` [Example 1102, 3,4-bis(benzyloxy)phenol, reference compound], the “autophagy activity (level of LC3), control compounds” value in the assay on LC3 was “do not increase autophagy activity”.

Regarding `c1ccc(COc2ccc(OC[C@H]3CO3)cc2OCc2ccccc2)cc1` [Example 1103, (R)-2-((3,4-bis(benzyloxy)phenoxy)methyl)oxirane, reference compound], the “autophagy activity (level of LC3), control compounds” value with LC3 is recorded as “do not increase autophagy activity”.

Consider `O=Cc1ccc(OCc2ccccc2)c(OCCc2ccccc2)c1` [Example 1201, 4-(benzyloxy)-3-phenethoxybenzaldehyde, reference compound], for which, in the assay with LC3, the “autophagy activity (level of LC3), control compounds” value is recorded as “do not increase autophagy activity”.

As to `Oc1ccc(OCc2ccccc2)c(OCCc2ccccc2)c1` [Example 1202, 4-(benzyloxy)-3-phenethoxyphenol, reference compound], the “autophagy activity (level of LC3), control compounds” value in the assay with LC3 was “do not increase autophagy activity”.

As for `c1ccc(CCOc2cc(OC[C@H]3CO3)ccc2OCc2ccccc2)cc1` [Example 1203, (R)-2-((4-(benzyloxy)-3-phenethoxyphenoxy)methyl)oxirane, reference compound], the “autophagy activity (level of LC3), control compounds” value in the assay on LC3 was “do not increase autophagy activity”.

On to `O=Cc1ccc(OCc2ccccc2)c(OCCCc2ccccc2)c1` [Example 1301, 4-(benzyloxy)-3-(3-phenylpropoxy)benzaldehyde, reference compound], for which the “autophagy activity (level of LC3), control compounds” value in the assay on LC3 is listed as “do not increase autophagy activity”.

For the compound `Oc1ccc(OCc2ccccc2)c(OCCCc2ccccc2)c1` [Example 1302, 4-(benzyloxy)-3-(3-phenylpropoxy)phenol, reference compound], the “autophagy activity (level of LC3), control compounds” value with LC3 is “do not increase autophagy activity”.

`O=Cc1ccc(OCc2ccccc2)c(OCCCCc2ccccc2)c1` [Example 1401, 4-(benzyloxy)-3-(4-phenylbutoxy)benzaldehyde, reference compound]: the “autophagy activity (level of LC3), control compounds” value in the assay on LC3 is “do not increase autophagy activity”.

For `Oc1ccc(OCc2ccccc2)c(OCCCCc2ccccc2)c1` [Example 1402, 4-(benzyloxy)-3-(4-phenylbutoxy)phenol, reference compound], the “autophagy activity (level of LC3), control compounds” value with LC3 is “do not increase autophagy activity”.

`O=Cc1ccc(OCCc2ccccc2)c(OCCc2ccccc2)c1` [Example 2201, 3,4-diphenethoxybenzaldehyde, reference compound]: the “autophagy activity (level of LC3), control compounds” value in the assay on LC3 is “do not increase autophagy activity”.

In the case of `Oc1ccc(OCCc2ccccc2)c(OCCc2ccccc2)c1` [Example 2202, 3,4-diphenethoxyphenol, reference compound], in the assay on LC3, the “autophagy activity (level of LC3), control compounds” value is given as “do not increase autophagy activity”.

As for `O=Cc1ccc(OCCCc2ccccc2)c(OCCCc2ccccc2)c1` [Example 3301, 3,4-bis(3-phenylpropoxy)benzaldehyde], the “autophagy activity (level of LC3)” value with LC3 (setting [1]) is “increasing the autophagy activity”.

Turning to `Oc1ccc(OCCCCc2ccccc2)c(OCCCCc2ccccc2)c1` [Example 4402, 3,4-bis(4-phenylbutoxy)phenol, reference compound], the “autophagy activity (level of LC3), control compounds” value in the assay on LC3 is recorded as “do not increase autophagy activity”.

Regarding `CC(C)NC[C@@H](O)COc1ccc(OCc2ccccc2)c(OCc2ccccc2)c1` [YOK-1104, (R)-1-(3,4-bis(benzyloxy)phenoxy)-3-(isopropylamino)propan-2-ol], the “autophagy activity (level of LC3)” value in the assay with LC3 (setting [1]) is given as “increasing the autophagy activity”. For the same compound, on p62 protein, the “p62 protein oligomerization activity (p62 monomer, oligomers and high-molecular aggregates)” value (“p62 protein oligomerization activity” below) is on record as “increasing the p62 protein oligomerization activity”.

In the case of `N=C(N)NC[C@@H](O)COc1ccc(OCc2ccccc2)c(OCc2ccccc2)c1` [YOK-1107, (R)-1-(3-(3,4-bis(benzyloxy)phenoxy)-2-hydroxypropyl)guanidine], the “autophagy activity (level of LC3)” value in the assay with LC3 (setting [2]) is given as “gradually increased; also recorded: increasing the autophagy activity”; with LC3 (setting [1]) it was “increasing the autophagy activity”; in the assay with LC3 (setting [3]), “gradually increased”. The “p62 protein oligomerization activity” value on p62 protein was “increasing the p62 protein oligomerization activity”.

Consider `N=C(N)NCCNC[C@@H](O)COc1ccc(OCc2ccccc2)c(OCc2ccccc2)c1` [YOK-1109, (R)-1-(2-((3-(3,4-bis(benzyloxy)phenoxy)-2-hydroxypropyl)amino)ethyl)guanidine], for which the “autophagy activity (level of LC3)” value in the assay on LC3 (setting [3]) is “gradually increased”. Also, the “p62 protein oligomerization activity” value at p62 protein is recorded as “increasing the p62 protein oligomerization activity”.

Turning to `CC(C)NC[C@@H](O)COc1ccc(OCc2ccccc2)c(OCCCc2ccccc2)c1` [YOK-1304, (R)-1-(4-(benzyloxy)-3-(3-phenylpropoxy)phenoxy)-3-(isopropylamino)propan-2-ol], in the assay with LC3 (setting [2]), the “autophagy activity (level of LC3)” value is listed as “gradually increased; also recorded: increasing the autophagy activity”.

With `N=C(N)NC[C@@H](O)COc1ccc(OCCc2ccccc2)c(OCCc2ccccc2)c1` [YOK-2207, (R)-1-(3-(3,4-diphenethoxyphenoxy)-2-hydroxypropyl)guanidine], in the assay with LC3 (setting [3]), the “autophagy activity (level of LC3)” value is recorded as “gradually increased”. Moreover, at p62 protein, the “p62 protein oligomerization activity” value is “increasing the p62 protein oligomerization activity”.

Turning to `N=C(N)NCCNC[C@@H](O)COc1ccc(OCCc2ccccc2)c(OCCc2ccccc2)c1` [YOK-2209, (R)-1-(2-((3-(3,4-diphenethoxyphenoxy)-2-hydroxypropyl)amino)ethyl)guanidine], the “autophagy activity (level of LC3)” value in the assay with LC3 (setting [3]) is “gradually increased”. The “p62 protein oligomerization activity” value on p62 protein is listed as “increasing the p62 protein oligomerization activity”.

Regarding `CC(C)NC[C@@H](O)COc1ccc(OCc2ccc(Cl)cc2)c(OCc2ccc(Cl)cc2)c1` [YT-4-1, (R)-1-(3,4-bis((4-chlorobenzyl)oxy)phenoxy)-3-(isopropylamino)propan-2-ol], in the assay with LC3 (setting [3]), the “autophagy activity (level of LC3)” value is recorded as “gradually increased”. In addition, at p62 protein, the “p62 protein oligomerization activity” value is reported as “increasing the p62 protein oligomerization activity”.

With `CC(C)NC[C@@H](O)COc1ccc(OCc2ccc(F)cc2)c(OCc2ccc(F)cc2)c1` [YT-4-2, (R)-1-(3,4-bis((4-fluorobenzyl)oxy)phenoxy)-3-(isopropylamino)propan-2-ol], in the assay on LC3 (setting [3]), the “autophagy activity (level of LC3)” value is “gradually increased”. For the same compound, the “p62 protein oligomerization activity” value at p62 protein is recorded as “increasing the p62 protein oligomerization activity”.

Regarding `OCCNC[C@@H](O)COc1ccc(OCc2ccc(Cl)cc2)c(OCc2ccc(Cl)cc2)c1` [YT-6-1], the “autophagy activity (level of LC3)” value in the assay on LC3 (setting [3]) is given as “gradually increased”. In addition, the “p62 protein oligomerization activity” value on p62 protein is reported as “increasing the p62 protein oligomerization activity”.

Regarding `OCCNC[C@@H](O)COc1ccc(OCc2ccc(F)cc2)c(OCc2ccc(F)cc2)c1` [YT-6-2], the “autophagy activity (level of LC3)” value with LC3 (setting [3]) was “gradually increased”. Also, at p62 protein, the “p62 protein oligomerization activity” value is listed as “increasing the p62 protein oligomerization activity”.
